Test results as given in patent publication US6054115A, “Hydroxymethyl phosphine compounds for use as diagnostic and therapeutic pharmaceuticals and method of making same” (priority 1998, dated 2000).

Legend:
[1] = Oxidative stability of HMPE and HMPB in air and aqueous solution; type: physicochemical; settings: air and aqueous solutions
[2] = In vitro stability of Re complexes to cysteine challenge, 31P NMR; type: physicochemical; settings: for ligand exchange or complex decomposition: 1 M cysteine, 25° C, ~0.01 M complex
Method: Appropriate sample sizes of complexes 8, 9, and 10 were dissolved in 10 mL of deionized water to afford solution concentrations of ~0.01 M. To these solutions was added 15 mL of a 1.0 M cysteine solution also in water. The solutions were allowed to stir at room temperature overnight. The reaction progress for potential ligand displacement was monitored by ^31 P NMR spectroscopy at various timepoints over a twenty-four hour study period.
In order to determine the in vitro stability of the rhenium S2 P2 complexes 8, 9, and 10, the solutions of each were allowed to incubate at 25° C. in an aqueous solution of cysteine.

Row | Molecule | oxidative stability [1] | ligand exchange or complex decomposition [2] | stability profile (kinetic inertness) ([2]; 1.0 M cysteine, 24 hours)
1 | OCP(CO)c1ccccc1P(CO)CO [HMPB, (HOH2 C)2 PC6 H4 P(CH2 OH)2] | oxidatively stable in air and also in aqueous solutions | – | –
2 | OCP(CO)CCP(CO)CO [HMPE, (HOH2 C)2 PCH2 CH2 P(CH2 OH)2] | oxidatively stable in air and also in aqueous solutions | – | –
3 | [ReO2 (HOH2 C)2 P(CH2)2 S(CH2)3 S(CH2)2 P(CH2 OH)2 ]2 Cl2 [Compound 8] | – | no observable ligand exchange or complex decomposition | –
4 | [ReO2 (HOH2 C)2 P(CH2)2 S(CH2)4 S(CH2)2 P(CH2 OH2 ]2 (ReO4^-)2 [Compound 9] | – | no observable ligand exchange or complex decomposition | –
5 | [ReO2 (HOH2 C)2 P(CH2)3 S(CH2)3 S(CH2)3 P(CH2 OH)2 ]Cl [Compound 10] | – | no observable ligand exchange or complex decomposition | unusual kinetic inertness
